# Results published in article PMC11595589, “A Pharmacokinetic and Bioavailability Study of Ecklonia cava Phlorotannins Following Intravenous and Oral Administration in Sprague–Dawley Rats” (Marine Drugs, 2024).
# Read-outs that look alike come from different tables or passages of the source.
# What was measured:
# [1] = Single-dose pharmacokinetics after IV bolus administration of EK-ECP; assay type: in vivo, male Sprague–Dawley rats; conditions: IV bolus 10 mg/kg EK-ECP; for half-life / AUC(0-t) / Vd: iv
# Experimental: (§1) EK-ECP was administered to male Sprague–Dawley rats by either IV bolus (Group 1, 10 mg/kg) or oral gavage (Groups 2, 3 or 4, at 10, 100 or 1000 mg/kg, respectively) administration. Blood collection intervals were pre dose (0), and 0.25, 0.5, 1, 2, 4, 6, 8, 12, 24 and 36 h post dose. Plasma samples were analyzed for concentrations of 8,8′-bieckol, dieckol, and PFF-A; all pre-dose sample results were less than the lower limit of quantitation (LLOQ < 1 ng/mL). The time profiles of the plasma concentrations of 8,8′-bieckol, dieckol, and PFF-A in individual animals are illustrated in Figure 4. The mean pharmacokinetic parameters and corresponding coefficient of variation (CV) following IV administration of 10 mg/kg EK-ECP to male rats are illustrated in Table 1. Those following oral administrations of 10, 100 and 1000 mg/kg EK-ECP to male rats are illustrated in Table 2.
# (§2) Total of 20 male CD® [Crl:CD®(SD)] rats (approximately 11.5 weeks of age) obtained from Charles River Laboratories (Portage, MI, USA) were used in our study. These included five rats with both jugular and femoral vein cannulations, and 15 rats with jugular vein cannulations. Of the 20 animals received, 16 male rats were placed in the study, comprising four rats with both jugular and femoral vein cannulations, and 12 rats with jugular vein cannulations. The rats were housed in the Mattawan facility of MPI Research Inc (currently Charles River Laboratories, Mattawan, MI, USA). Animal welfare for this study was in compliance with the U.S. Department of Agriculture’s (USDA) Animal Welfare Act (9 CFR Parts 1, 2 and 3). This facility maintained an animal welfare assurance statement with the National Institutes of Health Office of Laboratory Animal Welfare. All procedures were approved before the study by the institutional animal care utilization committee. Animals were individually housed and fed a basal diet of Lab Diet Certified Rodent Diet #5002, PMI Nutrition International, Inc. Food and water was available ad libitum except during fasting periods, when food was withheld, and during any required restraint periods, when both food and water were withheld. Animal rooms were maintained at (20 ± 2) °C and (50 ± 20)% relative humidity with a 12 h light/dark cycle throughout the study.
# (§3) For intravenous administration, EK-ECP was dissolved in 70/25/5 (v/v) phosphate-buffered saline (PBS)/propylene glycol/ethanol (pH 5.1 final concentration of 2 mg/mL) and stabilized at room temperature for 24 h. For oral administration, after an amount of EK-ECP appropriate to the final targeted formulation concentrations was weighed and placed in a bottle, a small amount of the vehicle (water for injection) was added and mixed using a vortex mixer and heated to between 60 to 70 °C until homogeneously suspended. Additional amounts of the vehicle were gradually added to yield the targeted EK-ECP concentrations (1, 10, and 100 mg/mL). Dosing occurred within 4 h after preparation completion. The individual constituent doses of dieckol, 8,8′-bieckol, and PFF-A in each dosing formulation were analyzed by RP-HPLC followed by interpolation of the corresponding area% to the calibration curve prepared with known concentrations of isolated standards. The animals were fasted for a minimum of 4 h prior to dosing and through the first 4 h of blood sample collection. Each animal in Group 1 received a single intravenous (IV) dose of the 10 mg/kg EK-ECP. The intravenous doses were administered as a slow bolus injection over 5 min through the femoral vein cannula. The cannula was flushed with approximately 0.3 mL of sterile 0.9% sodium chloride for injection, USP, immediately following dosing. Each animal in Groups 2, 3 and 4 received a single oral (PO) gavage dose of the appropriate test article formulation, as outlined Table 3. Oral gavage dosing formulations were continuously stirred throughout dosing. […]
# [2] = Single-dose pharmacokinetics and bioavailability after oral gavage administration of EK-ECP; assay type: in vivo, male Sprague–Dawley rats; conditions: for Tlast / Tmax: median (minimum-maximum); for half-life / AUC(0-t): po; for half-life / AUC(0-t) / Cmax / AUC(0-inf) / MRT last / Vd/F: mean (CV); for Vd/F: read-out: Vz/F
# Experimental: as §1, §2, §3
# [3] = Stability at pH 2 by UV–Vis spectroscopy (gastric juice degradation); assay type: physicochemical; conditions: period of at least 5 h, unpublished data
# From the text: To address the potential reduction in bioavailability due to degradation by gastric juice, we evaluated the stability of dieckol as a representative compound of phlorotannins at a pH of 2 using UV–Vis spectroscopy.
# [4] = tested on: mouse-model; parameters: method as in PMID 16042079; conditions: oral administration, mouse model ref 64; cited from earlier work
# [5] = tested on: gut microbial ecosystem; conditions: hydroethanolic extract of Silvetia compressa ref 73; cited from earlier work
# [6] = male, Sprague-Dawley, rat, plasma, mean (CV)
# [7] = male, Sprague-Dawley, rat, plasma, PO 100 mg/kg EK-ECP
# [8] = male, Sprague-Dawley, rat, plasma, PO 1000 mg/kg EK-ECP
structure (smiles),measurement,setting,value
Oc1cc(O)cc(Oc2c(O)cc(O)c3c2Oc2c(O)cc(Oc4c(O)cc(Oc5c(O)cc(O)c6c5Oc5c(O)cc(O)cc5O6)cc4O)cc2O3)c1 [dieckol],plasma concentrations quantifiable up to,[1],36 h
same,T1/2 (terminal half-life),"[1]; mean (CV), 10 mg/kg",11.9 (7) h
same,Tlast,[1]; median (minimum-maximum),36 (36–36) h
same,half-life,"[1]; male, Sprague-Dawley, rat, plasma, 10 mg/kg, mean (CV), ln(2)·MRTlast, read-out: Effective T1/2 (converted)",1.48 h
same,AUC(0-t),"[1]; male, Sprague-Dawley, rat, plasma, 10 mg/kg, mean (CV), read-out: AUC(0–24h)",5.19 µg·h/mL
same,AUC(0-t),"[1]; male, Sprague-Dawley, rat, plasma, 10 mg/kg, mean (CV), read-out: AUCTlast",5.29 µg·h/mL
same,half-life,"[1]; male, Sprague-Dawley, rat, plasma, 10 mg/kg, mean (CV), read-out: T1/2 (terminal half-life) (converted)",~11.9 h
same,Vd,"[1]; male, Sprague-Dawley, rat, plasma, 10 mg/kg, mean (CV), read-out: Vss",0.57 L/kg
same,Vd,"[1]; male, Sprague-Dawley, rat, plasma, 10 mg/kg, mean (CV), read-out: Vz",3.35 L/kg
same,AUC(0-inf),[1]; [6],5.39 µg·h/mL
same,MRT last,[1]; [6],2.14 h
same,clearance,"[1]; male, Sprague-Dawley, rat, plasma, read-out: Mean clearance (Cl) (converted)",0.193 L/h/kg
same,C0,[1]; [6],8.89 µg/mL
same,plasma concentrations quantifiable up to,[2]; PO 100 mg/kg EK-ECP (Group 3),8 h
same,Tlast,[2]; PO 100 mg/kg EK-ECP,8 (6–8) h
same,plasma concentrations quantifiable up to,"[2]; PO 1000 mg/kg EK-ECP (Group 4), PFF-A in a single rat",36 h
same,Tlast,[2]; PO 1000 mg/kg EK-ECP,36 (36–36) h
same,fold increase in AUCTlast for a 1:10-fold increase in dose,[2]; PO 100 to 1000 mg/kg EK-ECP,~49 fold
same,fold increase in Cmax for a 1:10-fold increase in dose,[2]; PO 100 to 1000 mg/kg EK-ECP,~41 fold
same,half-life,"[2]; male, Sprague-Dawley, rat, plasma, 100 mg/kg, PO 100 mg/kg EK-ECP, ln(2)·MRTlast, read-out: Effective T1/2 (converted)",2.36 h
same,AUC(0-t),"[2]; male, Sprague-Dawley, rat, plasma, 100 mg/kg, PO 100 mg/kg EK-ECP, read-out: AUC(0–24h)",0.0272 µg·h/mL
same,AUC(0-t),"[2]; male, Sprague-Dawley, rat, plasma, 100 mg/kg, PO 100 mg/kg EK-ECP, read-out: AUCTlast",0.0243 µg·h/mL
same,half-life,"[2]; male, Sprague-Dawley, rat, plasma, 100 mg/kg, PO 100 mg/kg EK-ECP, read-out: T1/2 (terminal half-life) (converted)",2.76 h
same,half-life,"[2]; male, Sprague-Dawley, rat, plasma, 1000 mg/kg, PO 1000 mg/kg EK-ECP, ln(2)·MRTlast, read-out: Effective T1/2 (converted)",5.31 h
same,AUC(0-t),"[2]; male, Sprague-Dawley, rat, plasma, 1000 mg/kg, PO 1000 mg/kg EK-ECP, read-out: AUC(0–24h)",1.13 µg·h/mL
same,AUC(0-t),"[2]; male, Sprague-Dawley, rat, plasma, 1000 mg/kg, PO 1000 mg/kg EK-ECP, read-out: AUCTlast",1.2 µg·h/mL
same,half-life,"[2]; male, Sprague-Dawley, rat, plasma, 1000 mg/kg, PO 1000 mg/kg EK-ECP, read-out: T1/2 (terminal half-life) (converted)",6.61 h
same,bioavailability,"[2]; male, Sprague-Dawley, rat, plasma, 100 and 1000 mg/kg oral dose of EK-ECP versus IV 10 mg/kg, dose-corrected, read-out: Bioavailability following oral gavage administration",0.06 to 0.23%
same,Cmax,"[2]; male, Sprague-Dawley, rat, plasma, PO 100 mg/kg EK-ECP (Group 3)",0.00667 µg/mL
same,AUC(0-inf),[2]; [7],0.0314 µg·h/mL
same,MRT last,[2]; [7],3.4 h
same,Vd/F,[2]; [7],1160 L/kg
same,Tmax,[2]; [7],0.5 to 4 h
same,Cmax,"[2]; male, Sprague-Dawley, rat, plasma, PO 1000 mg/kg EK-ECP (Group 4), PFF-A N = 1",0.274 µg/mL
same,AUC(0-inf),[2]; [8],1.23 µg·h/mL
same,MRT last,[2]; [8],7.67 h
same,Vd/F,[2]; [8],768 L/kg
same,Tmax,[2]; [8],0.5 h
same,stability at pH 2,[3],no significant changes
same,oral dose with CNS-directed effect (as low as),[4],1.0 mg/kg/bw
same,metabolism during fermentation,[5],metabolized within eight hours of fermentation
